Data published in patent publication US12570675B2, “Boronic acid compounds” (LG CHEM, LTD., priority 2020, dated 2026).

Each molecule was assayed against Proteasome chymotrypsin-like activity (S26 protein from RPMI8226 cells) (Homo sapiens, UniProt P28074). Conditions: S26 protein from RPMI8226 cell extract 2 ug/well, substrate 20 uM, 37° C., 90 minutes; read-out: Proteasome chymotrypsin-like activity inhibition IC50.
Assay type: biochemical
Summary of the method: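 Inhibition is measured in crude proteasome (S26) from RPMI8226 cells at 2 ug/well, using 20 uM substrate specific to each activity: Suc-LLVY-AMC for chymotrypsin-like, Z-LLE-AMC for caspase-like. Compounds span a dilution series from 10 uM.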

Chain of Proteasome chymotrypsin-like activity (S26 protein from RPMI8226 cells) (P28074 60-263 limits assumed): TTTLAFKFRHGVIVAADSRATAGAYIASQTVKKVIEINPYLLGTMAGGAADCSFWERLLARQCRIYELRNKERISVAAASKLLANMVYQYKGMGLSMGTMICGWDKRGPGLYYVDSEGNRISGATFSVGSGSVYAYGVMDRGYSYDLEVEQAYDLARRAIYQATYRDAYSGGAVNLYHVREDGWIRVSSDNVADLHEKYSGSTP

Row | Compound | IC50 [µM]
1 | CC(C)C[C@H](NC(=O)C1(Cc2cccc(OC(F)(F)F)c2)CC(CNC(=O)c2nccc3ccccc23)=NO1)B(O)O (stereo partly drawn) [Example 216, ((1R)-1-(3-((isoquinolin-1-carboxamido)methyl)-5-(3-(trifluoromethoxy)benzyl)-4,5-dihydroisoxazol-5-carboxamido)-3-methylbutyl)boronic acid] | < 0.01
2 | Cc1cccc(CC2(C(=O)N[C@@H](CC(C)C)B(O)O)CC(CNC(=O)c3sc(C)nc3C)=NO2)c1 (stereo partly drawn) [Example 217, ((1R)-1-(3-((2,4-dimethylthiazol-5-carboxamido)methyl)-5-(3-methylbenzyl)-4,5-dihydroisoxazol-5-carboxamido)-3-methylbutyl)boronic acid] | < 0.01
3 | Cc1cc(C(=O)NCC2=NOC(Cc3ccccc3)(C(=O)N[C@@H](CC(C)C)B(O)O)C2)n(C2CCOCC2)n1 (stereo partly drawn) [Example 218, ((1R)-1-(5-benzyl-3-((3-methyl-1-(tetrahydro-2H-pyran-4-yl)-1H-pyrazol-5-carboxamido)methyl)-4,5-dihydroisoxazol-5-carboxamido)-3-methylbutyl)boronic acid] | < 0.01
4 | Cc1nc(C)c(C(=O)NCC2=NOC(Cc3cccc(Cl)c3)(C(=O)N[C@@H](CC(C)C)B(O)O)C2)s1 (stereo partly drawn) [Example 219, ((1R)-1-(5-(3-chlorobenzyl)-3-((2,4-dimethylthiazol-5-carboxamido)methyl)-4,5-dihydroisoxazol-5-carboxamido)-3-methylbutyl)boronic acid] | < 0.01
5 | CC(C)C[C@H](NC(=O)C1(Cc2ccccc2)CC(CNC(=O)c2cnn(C)c2)=NO1)B(O)O (stereo partly drawn) [Example 220, ((1R)-1-(5-benzyl-3-((1-methyl-1H-pyrazol-4-carboxamido)methyl)-4,5-dihydroisoxazol-5-carboxamido)-3-methylbutyl)boronic acid] | < 0.01
6 | CC(C)C[C@H](NC(=O)C1(Cc2ccccc2)CC(CNC(=O)c2cc(-c3ccccn3)nn2C(C)C)=NO1)B(O)O (stereo partly drawn) [Example 221, ((1R)-1-(5-benzyl-3-((1-isopropyl-3-(pyridin-2-yl)-1H-pyrazol-5-carboxamido)methyl)-4,5-dihydroisoxazol-5-carboxamido)-3-methylbutyl)boronic acid] | < 0.01
7 | Cc1nn(C(C)C)c(C(=O)NCC2=NOC(Cc3ccccc3)(C(=O)N[C@@H](CC(C)C)B(O)O)C2)c1Cl (stereo partly drawn) [Example 222, ((1R)-1-(5-benzyl-3-((4-chloro-1-isopropyl-3-methyl-1H-pyrazol-5-carboxamido)methyl)-4,5-dihydroisoxazol-5-carboxamido)-3-methylbutyl)boronic acid] | < 0.01
8 | CC(C)C[C@H](NC(=O)C1(Cc2cccc(Cl)c2)CC(CNC(=O)c2cc(C(C)C)on2)=NO1)B(O)O (stereo partly drawn) [Example 223, ((1R)-1-(5-(3-chlorobenzyl)-3-((5-isopropylisoxazol-3-carboxamido)methyl)-4,5-dihydroisoxazol-5-carboxamido)-3-methylbutyl)boronic acid] | < 0.01
9 | Cc1cc(C(=O)NCC2=NOC(Cc3cccc(Cl)c3)(C(=O)N[C@@H](CC(C)C)B(O)O)C2)n(C(C)C)n1 (stereo partly drawn) [Example 225, ((1R)-1-(5-(3-chlorobenzyl)-3-((1-isopropyl-3-methyl-1H-pyrazol-5-carboxamido)methyl)-4,5-dihydroisoxazol-5-carboxamido)-3-methylbutyl)boronic acid] | < 0.01
10 | Cc1nn(C)cc1C(=O)NCC1=NOC(Cc2ccccc2)(C(=O)N[C@@H](CC(C)C)B(O)O)C1 (stereo partly drawn) [Example 226, ((1R)-1-(5-benzyl-3-((1,3-dimethyl-1H-pyrazol-4-carboxamido)methyl)-4,5-dihydroisoxazol-5-carboxamido)-3-methylbutyl)boronic acid] | < 0.025
11 | CC(C)C[C@H](NC(=O)C1(Cc2ccccc2)CC(CNC(=O)c2cc(C(C)C)nn2C(C)C)=NO1)B(O)O (stereo partly drawn) [Example 227, ((1R)-1-(5-benzyl-3-((1,3-diisopropyl-1H-pyrazol-5-carboxamido)methyl)-4,5-dihydroisoxazol-5-carboxamido)-3-methylbutyl)boronic acid] | < 0.01
12 | CC(C)C[C@H](NC(=O)C1(Cc2ccccc2)CC(CNC(=O)c2cc(-c3cccnc3)nn2C(C)C)=NO1)B(O)O (stereo partly drawn) [Example 228, ((1R)-1-(5-benzyl-3-((1-isopropyl-3-(pyridin-3-yl)-1H-pyrazol-5-carboxamido)methyl)-4,5-dihydroisoxazol-5-carboxamido)-3-methylbutyl)boronic acid] | < 0.01
13 | CC(C)C[C@H](NC(=O)C1(Cc2ccccc2)CC(CNC(=O)c2cc(-c3ccncc3)nn2C(C)C)=NO1)B(O)O (stereo partly drawn) [Example 229, ((1R)-1-(5-benzyl-3-((1-isopropyl-3-(pyridin-4-yl)-1H-pyrazol-5-carboxamido)methyl)-4,5-dihydroisoxazol-5-carboxamido)-3-methylbutyl)boronic acid] | < 0.01
14 | COc1cccc(CC2(C(=O)N[C@@H](CC(C)C)B(O)O)CC(CNC(=O)c3cc(-c4ccccc4)nn3C(C)C)=NO2)c1 (stereo partly drawn) [Example 230, ((1R)-1-(3-((1-isopropyl-3-phenyl-1H-pyrazol-5-carboxamido)methyl)-5-(3-methoxybenzyl)-4,5-dihydroisoxazol-5-carboxamido)-3-methylbutyl)boronic acid] | < 0.01
15 | COc1cccc(CC2(C(=O)N[C@@H](CC(C)C)B(O)O)CC(CNC(=O)c3cc(C(C)(C)C)nn3C(C)C)=NO2)c1 (stereo partly drawn) [Example 231, ((1R)-1-(3-((3-(tert-butyl)-1-isopropyl-1H-pyrazol-5-carboxamido)methyl)-5-(3-methoxybenzyl)-4,5-dihydroisoxazol-5-carboxamido)-3-methylbutyl)boronic acid] | < 0.01
16 | COc1cccc(CC2(C(=O)N[C@@H](CC(C)C)B(O)O)CC(CNC(=O)c3cc(C)nn3C(C)C)=NO2)c1 (stereo partly drawn) [Example 232, ((1R)-1-(3-((1-isopropyl-3-methyl-1H-pyrazol-5-carboxamido)methyl)-5-(3-methoxybenzyl)-4,5-dihydroisoxazol-5-carboxamido)-3-methylbutyl)boronic acid] | < 0.01
17 | COc1cccc(CC2(C(=O)N[C@@H](CC(C)C)B(O)O)CC(CNC(=O)c3c(Cl)c(C)nn3C(C)C)=NO2)c1 (stereo partly drawn) [Example 233, ((1R)-1-(3-((4-chloro-1-isopropyl-3-methyl-1H-pyrazol-5-carboxamido)methyl)-5-(3-methoxybenzyl)-4,5-dihydroisoxazol-5-carboxamido)-3-methylbutyl)boronic acid] | < 0.01
18 | Cc1cccc(CC2(C(=O)N[C@@H](CC(C)C)B(O)O)CC(CNC(=O)c3cc(C)nn3C(C)C)=NO2)c1 (stereo partly drawn) [Example 234, ((1R)-1-(3-((1-isopropyl-3-methyl-1H-pyrazol-5-carboxamido)methyl)-5-(3-methylbenzyl)-4,5-dihydroisoxazol-5-carboxamido)-3-methylbutyl)boronic acid] | < 0.01
19 | Cc1ncc(C(=O)NCC2=NOC(Cc3ccccc3)(C(=O)N[C@@H](CC(C)C)B(O)O)C2)s1 (stereo partly drawn) [Example 235, ((1R)-1-(5-benzyl-3-((2-methylthiazol-5-carboxamido)methyl)-4,5-dihydroisoxazol-5-carboxamido)-3-methylbutyl)boronic acid] | < 0.01
20 | Cc1cccc(CC2(C(=O)N[C@@H](CC(C)C)B(O)O)CC(CNC(=O)c3cc(-c4ccccc4)nn3C(C)C)=NO2)c1 (stereo partly drawn) [Example 236, ((1R)-1-(3-((1-isopropyl-3-phenyl-1H-pyrazol-5-carboxamido)methyl)-5-(3-methylbenzyl)-4,5-dihydroisoxazol-5-carboxamido)-3-methylbutyl)boronic acid] | < 0.01
